# Experimental data reported in US20100160268A1, “Isoflavonoid Analogs and their Metal Conjugates as Anti-Cancer Agents” (priority 2005, published 2010).
# pIC50: −log10 of the molar value.
# What was measured:
# [1] = test system: breast cancer cell line (T47D); assay: Propidium iodide / Hoechst 33342 fluorescence microscopy for apoptosis; format: cell-based
# Experimental: To provide further evidence of apoptosis, we carried out […] using a mixture of propidium iodide (PI) and Hoechst dye 33342 to determine the integrity of cell membranes of cancer cells. The quantification of the apoptosis was carried out by cell count after staining with PI followed by visualization of treated cells by fluorescence analysis. The fluorescent dyes PI and Hoechst 33342 were added to the cell culture medium after treatment with the test compounds (10 μM) for 48 h at a final concentrations of 10 μg/ml (PI dye) and Hoechst 33342 (1 μg/ml), respectively. After 5 minutes at 37° C. the cells were placed under a fluorescence microscope (Nikon Optiphot) with a filter block giving excitation at 380 nm and 480 nm.
# tumor cells = assay: Incubation with copper conjugate at IC50 concentration, viability and apoptosis (data not shown); format: cell-based
# [2] = test system: Akt, p-Akt and PARP in PC3 cells; assay: Western blot of Akt, p-Akt and PARP; format: cell-based, human; details: 10 and 20 μM, 72 h
# Experimental: Control cells were incubated in the medium with Na2CO3 using same time point. After incubation the cells were lysed with This-HCl (62.5 mm) and 2% SDS. Protein concentration was then measured using […] protein assay (Pierce Chemical Co., Rockford, Ill.). Cell extracts were subjected to 10% SDS-PAGE and electrophoretically transferred to nitrocellulose membrane. Membranes were then incubated with monoclonal anti-Akt (epitome: amino acids 345-480 of Akt1, 1:500; Ontogeny, 26. San Diego, Calif.), anti-phosphor-Akt Ser473 (1:1000; Cell Signaling, Beverly, Mass.), primary monoclonal anti-PARP antibody (1:5000; Biomol, Plymouth Meeting, Pa.) and anti-β-actin (1:5000; Sigma) antibodies, washed with TTBS, and incubated with secondary antibody conjugated with peroxidase. The signal was then detected using the chemiluminescent detection system (Pierce, Rockford, Ill.).
# [3] = test system: vascular endothelial growth factor (VEGF) in BxPC3 cells; assay: In vitro expression of VEGF (ELISA); format: cell-based, human; details: 10 μM, 20 μM, 72 h
# Experimental: BxPC3 cells (0.1×10^6/well) were plated into 6-well plates and incubated in supplemented RPMI containing 10% FBS.
# COLO 357 cells = assay: Orthotopic pancreatic tumor model; format: in vivo
# Excerpt: Since the NF-κB pathway is regulated by Akt protein, the effects of the FPA-124 on NF-κB activity was studied in an in vivo experiment, specifically the well-established orthotopic pancreatic tumor model using COLO 357 cells.
# NF-κB = assay: EMSA of NF-κB in tumor tissue of orthotopic pancreatic model; format: in vivo, mice
# Experimental: The redox sensitive transcription factor NF-κB, is downstream of the Akt kinase protein and plays major role in the cell proliferation and metastasis and resistance in major cancers such as breast, prostate and pancreatic. […] Nuclear proteins were extracted from the tumor tissue as described previously (see, for example, Banerjee, et al., Cancer Research, Vo. 65, p. 9064 (2005)) and kept at −70° C. until use. Protein concentration was determined using the bicinchonic acid assay kit with BSA as the standard (Pierce Chemical Co., Rockford, Ill.). The incubation mixture included 25 mM DTT and 2.5% Tween 20 in a binding buffer. The DNA-protein complex formed was separated from free oligonucleotide on 8.0% native polyacralyamide gel using buffer containing 50 mM Tris, 200 mm glycine, pH 8.5, and 1 mM EDTA, and then visualized by Odyssey Infrared Imaging System using Odyssey Software Release 1.1.
# However, there were significant differences in the pattern of necrosis, inflammatory response and fibrosis among these two groups. […] The viable tumor cells form large nests or sheets with minimal stromal fibrosis and inflammatory infiltrates. […] Only 20% of the mass was viable. The viable neoplastic cells form small nests of clusters associated with extensive stromal fibrosis and inflammatory infiltrates (See, FIG. 10c). […]
# [4] = test system: BT20, PC3, Colo357 and BxPC3 cancer cell lines; assay: MTT cell proliferation assay, four cell lines; format: cell-based; details: text b152; read-out: IC50 values in multiple cancer cell lines
# Experimental: (§1) The compounds were tested in multiple panels of breast (MCF-7, T47D, BT20 and MDA-MB231), prostate (PC3), and pancreatic (BxPC3, COLO357) cancer cell lines, using the dye 3-[4,5 dimethylthiazol-2-yl]-2,5 diphenyltetrazolium bromide (MTT assay) according to a method described in Banerjee, et al., Cancer Research, Vol. 62, page 4945 (2002).
# (§2) Adherent cells at a logarithmic phase were detached by addition of 2-3 ml of trypsin (Gibco), 0.02% EDTA mixture and incubation at 37° C. Cells were plated (100 μL per well) in 48 well flat bottom microtiter plates at densities of 2000 to 5000 per cm^2 (MCF-7, […], T47D, BT20, PC3, BxPC3, COLO357) cells per well. Cells were incubated for 24 h at 37° C. to resume exponential growth. The test compounds were dissolved in DMSO (final concentration 0.1%) and added to the cells 24 h after seeding at varying concentrations. Control wells containing the culture medium, were included in each experiment. Cell proliferation was evaluated after 72h by means of MTT assay.
# The biological effects of these compounds were studied against the hormone independent breast (BT20) and prostate (PC3) cancers as well as K-ras positive (Colo357) and K-ras negative (BxPC3) pancreatic cancer cell lines.
# [5] = test system: MCF-7, T47D, BT20, MDA-MB231, PC3, BxPC3, COLO357 cancer cell lines; assay: MTT assay, panel of breast, prostate and pancreatic cancer cell lines; format: cell-based; details: in words
# Experimental: as §1
# More specifically, the tumor cell lines MCF-7, MDA-MB 231 and COLO 357 were maintained in Dulbecco's modifed Eagle's medium (DMEM) with phenol red. Cell lines T47D, BT20, PC3 and BxPC3 were routinely cultured in RPMI medium, each medium being supplemented with Penicillin (50 U/ml), Streptomycin (50 μg/ml) and 10% fetal calf serum (FCS) (Gibco, Myclone). The cell lines were cultured in a humidified incubator in an atmosphere of 5% CO2 and were maintained in continuous exponential growth by twice a week passage.
# as §2, with “The test compounds were dissolved in DMSO (final concentration 0.1%) and added to the cells 24 h after seeding at varying concentrations. Control wells containing the culture medium, were included in each experiment.” left out
# [6] = test system: Colo357, BxPC3, BT20, and PC3 cells; assay: Cell Death Detection ELISA apoptosis assay; format: cell-based; details: FIG. 15, among FPA-124, FPA-125, FPA-127
# Experimental: To determine whether the metal conjugates induce apoptosis in tumor cells, quantitative evaluation of apoptosis was carried out with a Cell Death Detection ELISA kit (Roche, Palo Alto, Calif.). Apoptosis was detected according to the protocol supplied by the manufacturer.
# Since all copper compounds are redox active metal conjugates, we believe that redox triggered oxidative stress may be one of the underlying mechanisms for the observed apoptotic cell death in the present case. […] This observation is also in accordance with the favorable distortion factor calculated for the present copper compounds using EPR spectra, which factor helps stabilize cuprous and cupric species without dissociation of the conjugate.
# [7] = FPA-102 25 mg/kg i.v. on alternate days
compound,measurement,setting,value
CC(=O)C1CCC2C3CCC4=CC(=NNC(N)=S)CCC4(C)C3CCC12C.[Cl][Cu][Cl] (centres unmarked) [FPA-102],cell morphology after PI/Hoechst staining,"[1]; IC50 concentration (10 μM), FIG. 7b",nuclear condensation and membrane damage
same,potency of inducing apoptosis among the metal conjugates,[1]; comparison within series FPA-102 to FPA-104,highest potency of inducing apoptosis
same,apoptotic cells,tumor cells; 24-48 h treatment at IC50 concentration,~95%
same,non-viable cells,tumor cells; 3 h incubation at IC50 concentration,40%
same,PARP degradation / cleavage,[2],induces poly (ADP-ribose) polymerase degradation
same,phosphor-Akt level,[2],down regulates
same,VEGF levels,[3],decrease in the VEGF levels
same,body weight of treated mice (toxicity),COLO 357 cells; [7],no significant change in the body weight
same,tumor burden,COLO 357 cells; [7],decrease tumor burden
same,viable part of tumor mass,COLO 357 cells; tumor histology of treated mice,20%
same,NF-κB in the tumor tissue (EMSA),NF-κB; treatment for 10 days once every alternate day,down-regulation of NF-κB
"O=c1c(-c2ccc(O)cc2)coc2cc(O)cc(O)c12 [Genistein, 4,5,7,-trihydroxyisoflavone]",pIC50,[4],< 4.40
"CC(=O)C1CCC2C3CCC4=CC(=NNC(N)=S)CCC4(C)C3CCC12C (centres unmarked) [FPA-101, 17-acetyl-10,13-dimethyl-1,2,6,7,8,9,11,12,13,14,15,16,17-tetradecahydrocyclopenta[a]phenanthren-3-thiosemicarbazone]",antiproliferative action against the cell lines tested,[5],moderate antiproliferative action
NC1=[S+][Cu-2]([Cl])([Cl])[N+](=Cc2coc3ccccc3c2=O)N1 [FPA-124],"apoptosis by ELISA, ranking",[6],most active compound
same,body weight of the treated animals (toxicity),"COLO 357 cells; FPA-124, FIG. 17a",no change in the body weight
same,tumor load,"COLO 357 cells; FPA-124, FIG. 17b",decrease in the tumor load
same,NF-κB activity in the tumor tissue (EMSA),"NF-κB; FPA-124, FIG. 17c",significantly decreased
